Literature values, collected in patent US7807193B2 (priority 2002, dated 2010).

Legend:
[1] = patients having adult onset diabetes, drug treatment therapy versus insulin treatment
[2] = system: ob/ob mice; conditions: homozygous diabetic mouse model (ob/ob); U.S. application 20020037861 A1

For `CN(C)C(=N)N=C(N)N` [metformin], the Mortality rates [1] is listed as 8%.
For `CC1(C)O[C@@H]2[C@@H](CO[C@@]3(COS(N)(=O)=O)OC(C)(C)O[C@@H]23)O1` [topiramate, 2,3:4,5-bis-O-(1-methylethylidene)-β-D-fructopyranose sulfamate], the “Levels of blood glucose, triglycerides, insulin and glycosylated hemoglobin versus control ob/ob mice not given topiramate” value [2] is listed as “significantly lower”.
